Test results reported in paper PMC10515483, “Structure–Reactivity Studies of 2-Sulfonylpyrimidines Allow Selective Protein Arylation” (Bioconjugate Chemistry, 2023).

Assay: GSH arylation rate constants (NMR; UV-vis for fast warheads)
Type: physicochemical
Design: key to rate constant (k) for the reaction with GSH / k: NR = no reaction
Details: for reactivity with GSH (in words): up to 6 h; for k: Table S8, rate constants obtained at pH = 7; for k change (vs ref): ratio to rate constant of 4q, acceleration (+) or deceleration (-)
Excerpt: We employed nuclear magnetic resonance (NMR) and UV–vis to quantify the reactivity of our 2-SP derivatives and other representative electrophiles (Figure 2) against cysteine. NMR allowed straightforward determination of reaction rate constants through dual monitoring of the consumption of the warhead and formation of the product by integration of their respective NMR signals (Figures S1–S3). It simultaneously provided a direct readout on reaction specificity and hydrolytic stability of the warhead. All measurements were carried out in KPi buffer in the presence of 5% d^6-dmso, which is generally well-tolerated by a wide range of proteins in in vitro studies. N-acetylcysteine methylester (NACME) and L-glutathione (GSH) are useful model cysteine nucleophiles for in vitro studies of electrophilic agents.[32] Mixing reference electrophile 2-methylsulfonylpyrimidine (4q) with NACME or GSH in a 1:10 ratio (pseudo-first-order conditions) allowed extraction of accurate and reproducible second order rate constants (k).
Figure 3 In vitro determination of electrophilic reactivity of compounds. (A) NMR assay setup for warhead/GSH reaction rate constant determination and chemoselectivity monitoring, over a 6 h time scale. Purple bead = GSH. Hydrolytic stability was determined in the same way over 36 h. d^4-Trimethylsilylpropanoate (TMSP, blue box) was used as an internal standard for monitoring the warhead solubility. Second-order reaction rate constants (k) were obtained from their pseudo-first-order counterparts (k′), by time-dependent normalized integration of the disappearing warhead signals. […] (B) Experimental second-order rate constants (y axis, log10 scale) for the reaction of representative 2-SP derivatives (left, 11 out of ca. 40 examples) and previously reported heteroarylsulfones (right) with GSH in a KPi buffer, pH 7.0, 20 °C. All rate constants were calculated as an average of at least two independent measurements. Numerical values and standard deviations at both pH 7.0 and 6.5, along with a full list of 2-SPs and other electrophile types tested, are presented in Tables S2–S6 and Figure S4. The horizontal dashed line marks the reaction rate of 2-methylsulfonylpyrimidine at pH 7.0, as a reference when comparing with other reagents (see main text).
To establish an accurate structure–reactivity profile of 2-SP reagents, we systematically determined their reaction rate constants for the arylation of GSH by NMR, at pH 7.0 and 6.5. This was a prerequisite to (i) quantify the influence of substitution on reaction rates; (ii) accurately assess the tunability and chemoselectivity of 2-SPs for cysteine arylation; (iii) determine the influence of pH on the reaction rates to further inform on the precise reaction mechanism; and (iv) benchmark the overall performance of 2-SPs with those of previously reported fast reacting heteroarylsulfones and other common cysteine reactive warheads (Figure 2C,D).

[1] = pH 6.5, by NMR, KPi buffer, 5% DMSO-d6
[2] = pH 7.0, by NMR, KPi buffer, 5% DMSO-d6

Compound	rate constant (k) for the reaction with GSH [1]	rate constant (k) for the reaction with GSH [2]	further results
Clc1ncccn1 [1q]	NR	NR	reactivity with GSH (in words) (KPi buffer): failed to induce observable arylation of GSH; k: NR
Clc1ncc(Br)cn1 [1t]	Ca. 0.025 mM-1.s-1	Ca. 0.15 mM-1.s-1	–
CS(=O)(=O)c1ncc(Cl)c(C(=O)O)n1 [4h]	–	–	k change (vs ref) (pH 7.0): +7 fold
Nc1ncccn1 [compound 17, reference compound]	–	NR	–
CCCCSc1ncccn1 [3c]	–	NR	–
Brc1ncccn1 [compound 14, reference compound]	–	–	k: NR
CSc1nccc(C(=O)O)n1 [2d]	NR	NR	–
c1ccc(Sc2ncccn2)cc1 [3d]	–	NR	–
C=CC(=O)Nc1ccccc1 [compound 22, reference compound]	–	NR	reactivity with GSH (in words) (KPi buffer): none
CSc1ncc([N+](=O)[O-])cn1 [2m]	NR	NR	–
OB1OCc2ccccc21 [compound 23, reference compound]	–	–	rate constant (k) for the reaction with GSH (pH 7): NR
COC(=O)c1cnc(Cl)nc1 [1y]	Ca. 11 mM-1.s-1	Ca. 55 mM-1.s-1	rate relative to 5-NO2-MSBT / nitro-MSBT (10) (in words) (in vitro): an order of magnitude
CSc1ncc(C(F)(F)F)cn1 [2x]	NR	NR	–
CSc1nccc(C(F)(F)F)n1 [2l]	NR	NR	–
COc1ccnc(Cl)n1 [1b]	NR	NR	–
O=C(O)c1nc(Cl)ncc1Cl [1h]	NR	NR	–
CSc1nccc(C)n1 [2c]	NR	NR	–
Clc1cnc(Cl)nc1 [1s]	Ca. 0.07 mM-1.s-1	Ca. 0.26 mM-1.s-1	–
O=C(O)c1cnc(Cl)nc1 [1v]	Ca. 0.14 mM-1.s-1	Ca. 0.65 mM-1.s-1	–
CS(=O)(=O)c1nc2ccc([N+](=O)[O-])cc2s1 [compound 10, 2-(methylsulfonyl)-6-nitrobenzo[d]thiazole, reference compound]	–	–	rate constant (k) for the reaction with GSH (pH 6.5, measured by UV titrations): 290 ± 130 M⁻¹ s⁻¹; second order rate constant k with GSH (pH 7.0, KPi buffer): ≈ 1200 M^–1 s^–1; k change (vs ref) (pH 7.0): +44,000 fold
Cc1cc(C)nc(Cl)n1 [1a]	NR	NR	–

Compound	rate constant (k) for the reaction with GSH [1]	rate constant (k) for the reaction with GSH [2]	further results
Cc1cnc(Cl)nc1 [1o]	NR	NR	–
COc1cnc(Cl)nc1 [1n]	NR	NR	–
CC1(C)S[C@@H]2[C@H](N)C(=O)N2[C@H]1C(=O)O [compound 27, reference compound]	–	NR	reactivity with GSH (in words) (KPi buffer): none
COc1ccnc(SC)n1 [2b]	NR	NR	–
COC(=O)c1ccnc(Cl)n1 [1k]	NR	NR	–
CSc1ncccn1 [2q]	NR	NR	k: NR
Clc1ncc(-c2ccccc2)cn1 [1p]	NR	NR	–
Nc1ccnc(Cl)n1 [1g]	NR	NR	–
CSc1ncc(Cl)c(C(=O)O)n1 [2h]	NR	NR	–
NC(=O)c1ccnc(Cl)n1 [1j]	NR	NR	–
O=[N+]([O-])c1cnc(Cl)nc1 [1w]	NR	NR	–
COc1cnc(SC)nc1 [2n]	NR	NR	–
CSc1ncc(Br)cn1 [2t]	NR	NR	–
Clc1nccc(-c2ccccc2)n1 [1e]	NR	NR	–
Cc1ccnc(Cl)n1 [1c]	NR	NR	–
CSc1ncc(Cl)cn1 [2s]	NR	NR	–
Fc1ncccn1 [compound 13, reference compound]	–	NR	k: NR
CSc1nc(C)cc(C)n1 [2a]	NR	NR	–
Fc1cnc(Cl)nc1 [1r]	NR	NR	–
CS(=O)(=O)c1ncc(F)cn1 [4r]	Multiple	Multiple	–
CSc1ncc(F)cn1 [2r]	NR	NR	–

Compound	rate constant (k) for the reaction with GSH [1]	rate constant (k) for the reaction with GSH [2]	further results
CSc1nccc(N)n1 [2g]	NR	NR	–
O=C(c1ccccc1)C(F)(F)F [compound 25, reference compound]	–	NR	reactivity with GSH (in words) (KPi buffer): none
CSc1ncc(Br)c(C(=O)O)n1 [2i]	NR	NR	–
CSc1nccc(-c2ccccc2)n1 [2e]	NR	NR	–
O=S(=O)(F)c1ccccc1 [compound 26, reference compound]	–	NR	reactivity with GSH (in words) (KPi buffer): none
O=C1C=CC(=O)N1Cc1ccccc1 [compound 21, N-benzylmaleimide, reference compound]	–	Multiple products	reactivity with GSH (in words) (KPi buffer): heterogeneous mixture of succinimidyl products; second order rate constant k with GSH (pH 7.0, KPi buffer): > 0.5 M^–1 s^–1
CSc1nccc(C(N)=O)n1 [2j]	NR	NR	–
c1ccc(C2CO2)cc1 (stereo not drawn) [compound 24, reference compound]	–	NR	reactivity with GSH (in words) (KPi buffer): none
COC(=O)c1ccnc(SC)n1 [2k]	NR	NR	–
COc1cc(OC)nc(SC)n1 [2f]	NR	NR	–
Nc1cnc(Cl)nc1 [1m]	NR	NR	–
FC(F)(F)c1ccnc(Cl)n1 [1l]	0.00045 M⁻¹ s⁻¹	0.001 ± 0.0005 M⁻¹ s⁻¹	–
CSc1ncc(C)cn1 [2o]	NR	NR	–
COc1cc(OC)nc(Cl)n1 [1f]	NR	NR	–
O=C(O)c1ccnc(Cl)n1 [1d]	NR	NR	–
CC(C)(C)Sc1ncccn1 [3a]	–	NR	–
CS(=O)(=O)c1cnccn1 [compound 18]	NR	NR	reactivity with GSH (in words) (KPi buffer): completely switched off reactivity
COC(=O)c1cnc(SC)nc1 [2y]	NR	Ca. 0.020 mM-1.s-1	–
O=C(O)c1nc(Cl)ncc1Br [1i]	NR	NR	–
Oc1ncccn1 [compound 16, reference compound]	–	NR	–
